Consider three molecules from patent US20130330358A1, “CRYSTAL STRUCTURE AND PEPTIDE INHIBITORS OF HAUSP DEUBIQUITINASE” (priority 2011, published 2013).

For assay [1], the target named is T1, HAUSP TRAF domain HAUSP^62-205 (Homo sapiens, UniProt Q93009).
T1 construct: HAUSP^62-205, and HAUSP^62-560 were fused to a hexahistidine-tag2 and expressed in E. coli BL21 (DE3) RIPL cells; hexahistidine (cleaved yes); made in house; host or cells: E. coli BL21 (DE3) RIPL
Description: biochemical. Format: binding. The settings on record: ITC, 20° C.; read-out: Kd. On the procedure:
FIG. 5. Typical isothermal titration calorimetric measurements of the interactions between the HAUSP TRAF domain and the vIRF4 protein derivatives or other peptides. Purified proteins and synthesized peptides were reconstituted in 150 mM NaCl and 10 mM HEPES (pH 7.0). The calorimetric assays were performed using a VPITC system. All experiments were carried out with a stirring speed of 300 rpm at 20° C., and the thermal power was recorded every 10 s. Data were analyzed using the ORIGIN software package (version 7.0). […] Each titration against the HAUSP TRAF domain is indicated in each panel.
Purified proteins and synthesized peptides (Peptron Inc., Deajeon, Korea) were reconstituted in 150 mM NaCl and 10 mM HEPES (pH 7.0). The calorimetric assays were performed using a VP-ITC system (MicroCal Inc., Northampton, Mass.). Samples were degassed by vacuum aspiration for 15 min prior to loading. All experiments were carried out with a stirring speed of 300 rpm at 20° C., and the thermal power was recorded every 10 s. Data were analyzed using the ORIGIN software package (version 7.0) supplied with the instrument. […]

Assay [2] addresses T1, HAUSP TRAF domain HAUSP^62-205. Briefly: Size exclusion chromatography, complex formation in 5-fold excess of MDM2^137-152. The settings on record: in the presence of a 5-fold molar excess of MDM2 peptide. Format: binding.
In the next assay the target is T2, USP8 (Homo sapiens, UniProt P40818).
T2 sequence (P40818 1-1118): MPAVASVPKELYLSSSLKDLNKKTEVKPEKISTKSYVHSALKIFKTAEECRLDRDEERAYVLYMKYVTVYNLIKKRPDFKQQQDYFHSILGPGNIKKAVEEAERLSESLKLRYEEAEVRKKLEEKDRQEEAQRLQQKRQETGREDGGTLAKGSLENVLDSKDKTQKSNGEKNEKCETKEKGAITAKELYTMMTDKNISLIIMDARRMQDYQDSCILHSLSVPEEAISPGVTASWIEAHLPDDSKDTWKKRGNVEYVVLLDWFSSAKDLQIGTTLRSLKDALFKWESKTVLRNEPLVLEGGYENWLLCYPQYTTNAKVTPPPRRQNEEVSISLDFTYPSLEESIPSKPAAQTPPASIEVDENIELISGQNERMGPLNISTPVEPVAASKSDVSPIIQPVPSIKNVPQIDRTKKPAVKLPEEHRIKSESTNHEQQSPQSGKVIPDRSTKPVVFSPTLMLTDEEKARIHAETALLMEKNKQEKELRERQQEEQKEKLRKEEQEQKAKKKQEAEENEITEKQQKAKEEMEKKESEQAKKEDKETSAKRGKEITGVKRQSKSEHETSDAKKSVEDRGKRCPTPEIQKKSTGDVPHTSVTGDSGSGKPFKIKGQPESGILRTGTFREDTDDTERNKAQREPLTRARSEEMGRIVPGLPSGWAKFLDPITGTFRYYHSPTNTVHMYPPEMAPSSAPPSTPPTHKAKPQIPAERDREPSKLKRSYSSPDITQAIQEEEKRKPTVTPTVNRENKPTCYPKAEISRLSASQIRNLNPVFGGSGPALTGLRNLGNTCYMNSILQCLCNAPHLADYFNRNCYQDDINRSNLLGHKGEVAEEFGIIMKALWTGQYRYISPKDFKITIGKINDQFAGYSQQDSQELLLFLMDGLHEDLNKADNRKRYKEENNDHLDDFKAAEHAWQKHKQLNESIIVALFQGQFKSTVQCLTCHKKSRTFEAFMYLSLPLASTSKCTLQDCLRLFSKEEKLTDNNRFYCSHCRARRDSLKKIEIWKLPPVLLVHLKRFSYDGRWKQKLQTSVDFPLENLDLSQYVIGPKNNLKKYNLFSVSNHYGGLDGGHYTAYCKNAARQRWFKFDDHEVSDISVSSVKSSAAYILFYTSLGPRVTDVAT
Format: biochemical. The note with it: 0.25 μM purified USP8 pre-mixed with peptide 5 min.

Assay [3] deals with SJSA-1 (MDM2 amplification). Briefly: WST-1 cell growth assay, SJSA-1. Format: cell-based, human. The settings on record: SJSA-1, 100 μM, compared with LnCap cells.
Assay [4] relates to MCF7 (MDMX amplification). Briefly: WST-1 cell growth assay, MCF7. Format: cell-based, human. The settings on record: MCF7, 100 μM, compared with LnCap cells.
Assay [5] has as its system p53 and its transcriptional targets p21 and MDM2. Description: Immunoblot of p53, MDM2, p21 and HAUSP levels in PEL cells. Format: cell-based, human. The settings on record: FIG. 3d. The source says: The results were quantified as mean±s.d. of the combined results from three independent experiments; Data are mean±s. e. m.; n=200-300 cells from three independent experiments. *P<0.01 and **P<0.001. A Beckman Coulter Z2 Particle Count and size analyzer (BC Z2 CS analyzer) and trypan blue staining were used to determine cell death and for cell growth analysis. […] BrdU incorporation during the S phase is quantified as percentage of stained cells. […] Data are culled from 3 independent experiments. […] Apoptosis in VG1 cells was assessed at 48 h after treatment with 10 μM Nutlin-3a or 100 μM of each peptide by Annexin V/PI staining and measured by flow cytometry analysis. […] Numbers indicate the percentage of cells in each quadrant. […] VG1 and BJAB cells were treated with the same dose as used in (b) and (c) for 6 h and aliquots of cell lysates containing […] of protein were analyzed by IB with the indicated antibody. […] Tumors were measured by in vivo bioluminescence imaging. […] The results were quantified as mean±s.d. of the combined results from three independent experiments; Data are mean±s. e. m.; n=200-300 cells from three independent experiments. *P<0.05 and **P<0.01. […]

Assay [6] deals with T3, HAUSP (Homo sapiens, UniProt Q93009). Description: In vitro DUB assay, purified HAUSP with ubiquitinated MDM2 as substrate. The settings on record: HAUSP preincubated with increasing amounts of peptide (FIG. 2f).
The target of assay [7] is T3, HAUSP. The settings on record: time course, K48-Ub3-7 chains, 37° C. (FIG. 2e).

T3 sequence (Q93009 whole entry): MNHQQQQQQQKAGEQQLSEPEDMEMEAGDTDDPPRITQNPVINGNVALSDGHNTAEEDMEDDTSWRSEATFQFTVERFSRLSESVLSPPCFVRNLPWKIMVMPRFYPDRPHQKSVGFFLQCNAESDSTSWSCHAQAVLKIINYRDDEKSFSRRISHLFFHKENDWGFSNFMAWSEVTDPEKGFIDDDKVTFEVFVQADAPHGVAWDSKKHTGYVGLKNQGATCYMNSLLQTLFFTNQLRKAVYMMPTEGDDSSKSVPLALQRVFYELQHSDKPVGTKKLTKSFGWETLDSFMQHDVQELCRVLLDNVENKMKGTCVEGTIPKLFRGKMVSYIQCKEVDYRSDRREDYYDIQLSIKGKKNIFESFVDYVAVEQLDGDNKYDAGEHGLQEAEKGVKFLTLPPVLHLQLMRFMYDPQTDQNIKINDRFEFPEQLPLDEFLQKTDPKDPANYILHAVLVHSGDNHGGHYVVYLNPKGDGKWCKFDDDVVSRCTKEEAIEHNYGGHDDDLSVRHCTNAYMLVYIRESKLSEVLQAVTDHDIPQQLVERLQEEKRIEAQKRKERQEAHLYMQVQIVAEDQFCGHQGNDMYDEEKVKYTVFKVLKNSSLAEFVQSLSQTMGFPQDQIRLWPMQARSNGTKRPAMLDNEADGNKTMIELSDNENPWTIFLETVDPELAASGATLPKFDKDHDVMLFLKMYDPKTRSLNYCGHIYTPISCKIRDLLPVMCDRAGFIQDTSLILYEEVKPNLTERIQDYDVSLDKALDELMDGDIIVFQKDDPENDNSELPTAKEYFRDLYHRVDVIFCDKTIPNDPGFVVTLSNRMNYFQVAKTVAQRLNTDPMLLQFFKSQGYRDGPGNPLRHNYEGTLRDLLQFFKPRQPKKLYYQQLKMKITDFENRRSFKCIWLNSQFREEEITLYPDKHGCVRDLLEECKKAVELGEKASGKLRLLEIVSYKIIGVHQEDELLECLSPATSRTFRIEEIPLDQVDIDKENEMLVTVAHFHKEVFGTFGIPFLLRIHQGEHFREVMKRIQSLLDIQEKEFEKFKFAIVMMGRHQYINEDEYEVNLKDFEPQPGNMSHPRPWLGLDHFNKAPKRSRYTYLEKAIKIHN
T1 sequence (Q93009 62-205): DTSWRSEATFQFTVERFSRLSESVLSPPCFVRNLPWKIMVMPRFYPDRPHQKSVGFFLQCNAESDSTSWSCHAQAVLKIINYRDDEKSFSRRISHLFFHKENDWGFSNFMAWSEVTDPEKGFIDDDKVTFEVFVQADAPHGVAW

In the case of `C[C@H](NC(=O)[C@@H]1CCCN1C(=O)CNC(=O)[C@H](CCC(N)=O)NC(=O)[C@@H](N)CCC(=O)O)C(=O)N[C@@H](CC(=O)O)C(=O)N[C@@H](CC(=O)O)C(=O)N1CCC[C@H]1C(=O)NCC(=O)N[C@@H](CCC(=O)O)C(=O)NCC(=O)N1CCC[C@H]1C(=O)N[C@@H](CO)C(=O)N[C@H](C(=O)NCC(=O)O)[C@@H](C)O` [EBNA1^435-449, reference compound], in assay [1], the Kd came out at 0.48 ± 0.04 µM.

In the case of `CC[C@H](C)[C@H](NC(=O)[C@H](Cc1c[nH]c2ccccc12)NC(=O)[C@@H](NC(=O)[C@@H](N)CO)C(C)C)C(=O)N1CCC[C@H]1C(=O)N[C@H](C(=O)N[C@@H](CC(N)=O)C(=O)N[C@@H](CCC(=O)O)C(=O)NCC(=O)N[C@@H](C)C(=O)N[C@@H](CO)C(=O)N[C@H](C(=O)N[C@@H](CO)C(=O)NCC(=O)N[C@@H](CCSC)C(=O)O)[C@@H](C)O)C(C)C` [vIRF4^202-216], the “complex formation with the HAUSP TRAF domain” value in assay [2] is listed as “formed a stable complex”. Moreover, the “USP8 DUB activity” value at USP8 is listed as “neither vif1 peptide nor vif2 peptide was capable of inhibiting USP8 DUB activity”. Also, the cell growth inhibition result in assay [3] and in assay [4] was “did not show as robust a susceptibility” each time. Also, the HAUSP levels entry in assay [5] is “Neither vif1 nor vif2 peptide treatment altered HAUSP levels”. Also, the “HAUSP DUB activity against ubiquitinated MDM2” value at HAUSP [6] is given as “efficiently blocked HAUSP DUB activity”. Further, the “HAUSP DUB activity, comparative kinetic analysis” value at HAUSP [7] is reported as “weakly attenuated HAUSP DUB activity”.

In the case of TRQVTQASSFTWRVPG [vif2], the “USP8 DUB activity” value at USP8 is on record as “neither vif1 peptide nor vif2 peptide was capable of inhibiting USP8 DUB activity”. For the same molecule, the cell growth inhibition entry in assay [3] and in assay [4] was “did not show as robust a susceptibility” in each case. The HAUSP levels entry in assay [5] is reported as “Neither vif1 nor vif2 peptide treatment altered HAUSP levels”. Moreover, the “HAUSP DUB activity against ubiquitinated MDM2” value at HAUSP [6] was “efficiently blocked HAUSP enzymatic activity”. On HAUSP [7], the “HAUSP DUB activity, comparative kinetic analysis” value is listed as “completely suppressed HAUSP DUB activity”.
